Experimental data as given in the NIST ThermoML archive (doi:10.1021/je0342825).

Assay: xn = mol fraction of the nth substance listed
Conditions: 101.3 kPa, Liquid

CCO [ethanol] + CC(=O)O
x2 = 0
Conditions	mass density [kg/m3]	speed of sound [m/s]	viscosity [mPa·s]
293.15 K	789.75	1162	1.187
298.15 K	785.46	1145	1.082
303.15 K	781.15	1128	0.987

O [water] + CC(=O)O
x2 = 0
Conditions	viscosity [mPa·s]
293.15 K	1.003
298.15 K	0.89
303.15 K	0.797

COC(C)=O [methyl ethanoate] + CC(=O)O
Conditions	mass density, 293.15 K [kg/m3]	mass density, 298.15 K [kg/m3]	mass density, 303.15 K [kg/m3]	speed of sound, 293.15 K [m/s]	speed of sound, 298.15 K [m/s]	speed of sound, 303.15 K [m/s]	viscosity, 293.15 K [mPa·s]	viscosity, 298.15 K [mPa·s]	viscosity, 303.15 K [mPa·s]
x2 = 0	933.56	926.98	920.34	1174	1151	1128	0.386	0.367	0.348
x2 = 0.0496	938.74	932.23	925.65	1177	1154	1131	0.401	0.381	0.362
x2 = 0.0956	943.44	936.98	930.46	1177	1155	1133	0.417	0.395	0.376
x2 = 0.195	953.14	946.77	940.34	1177	1155	1133	0.46	0.436	0.412
x2 = 0.3007	963.86	957.58	951.24	1176	1154	1133	0.506	0.48	0.453
x2 = 0.3902	973.23	967.02	960.77	1174	1153	1132	0.552	0.521	0.492
x2 = 0.4937	984.52	978.4	972.24	1172	1151	1131	0.617	0.58	0.547
x2 = 0.5953	996.15	990.1	984.03	1169	1149	1129	0.691	0.646	0.608
x2 = 0.6894	1007.51	1001.55	995.56	1166	1147	1127	0.775	0.725	0.68
x2 = 0.7943	1020.92	1015.05	1009.16	1162	1143	1124	0.894	0.834	0.782
x2 = 0.8987	1034.93	1029.17	1023.39	1156	1138	1120	1.037	0.962	0.896
x2 = 0.9502	1042.19	1036.49	1030.77	1153	1136	1118	1.12	1.037	0.964

CC(=O)O [acetic acid] + COC(C)=O
x1 = 1
Conditions	mass density [kg/m3]	speed of sound [m/s]	viscosity [mPa·s]
293.15 K	1049.3	1149	1.211
298.15 K	1043.65	1132	1.115
303.15 K	1038	1115	1.034

CC(=O)O [acetic acid] + CCO
Conditions	mass density, 293.15 K [kg/m3]	mass density, 298.15 K [kg/m3]	mass density, 303.15 K [kg/m3]	speed of sound, 293.15 K [m/s]	speed of sound, 298.15 K [m/s]	speed of sound, 303.15 K [m/s]	viscosity, 293.15 K [mPa·s]	viscosity, 298.15 K [mPa·s]	viscosity, 303.15 K [mPa·s]
x1 = 0.0493	803.5	799.15	794.78	1168	1151	1133	1.19	1.083	0.989
x1 = 0.1004	817.3	812.87	808.39	1173	1156	1139	1.195	1.089	0.994
x1 = 0.1992	844.8	840.2	835.58	1182	1165	1148	1.23	1.12	1.023
x1 = 0.2971	871.59	866.86	862.09	1190	1172	1155	1.276	1.162	1.06
x1 = 0.3962	898.37	893.5	888.6	1195	1177	1160	1.336	1.215	1.108
x1 = 0.4961	924.97	919.96	914.93	1197	1179	1162	1.383	1.258	1.152
x1 = 0.5981	951.75	946.59	941.42	1196	1178	1160	1.432	1.297	1.183
x1 = 0.7031	978.85	973.55	968.23	1192	1175	1157	1.444	1.31	1.198
x1 = 0.7973	1002.17	996.74	991.29	1184	1166	1149	1.419	1.291	1.181
x1 = 0.8979	1026.4	1020.84	1015.28	1171	1153	1136	1.338	1.225	1.126
x1 = 0.9515	1038.72	1033.11	1027.5	1161	1143	1126	1.275	1.172	1.084
x1 = 1	1049.3	1043.65	1038	1149	1132	1115	1.211	1.115	1.034

CC(=O)O [acetic acid] + CO
Conditions	mass density, 293.15 K [kg/m3]	mass density, 298.15 K [kg/m3]	mass density, 303.15 K [kg/m3]	speed of sound, 293.15 K [m/s]	speed of sound, 298.15 K [m/s]	speed of sound, 303.15 K [m/s]	viscosity, 293.15 K [mPa·s]	viscosity, 298.15 K [mPa·s]	viscosity, 303.15 K [mPa·s]
x1 = 0.0498	811.92	807.17	802.41	1133	1116	1100	0.626	0.583	0.543
x1 = 0.1006	831.39	826.6	821.79	1143	1127	1111	0.676	0.628	0.585
x1 = 0.2016	867.61	862.71	857.79	1162	1146	1130	0.784	0.729	0.678
x1 = 0.2995	899.77	894.77	889.74	1178	1161	1145	0.899	0.825	0.765
x1 = 0.401	929.99	924.88	919.75	1189	1172	1156	1.038	0.954	0.879
x1 = 0.4992	956.37	951.16	945.92	1196	1179	1162	1.161	1.062	0.975
x1 = 0.5996	980.68	975.36	970.01	1198	1181	1164	1.274	1.162	1.062
x1 = 0.6998	1001.88	996.46	991.01	1195	1178	1161	1.352	1.229	1.124
x1 = 0.7969	1020.24	1014.72	1009.19	1187	1170	1153	1.38	1.26	1.151
x1 = 0.9	–	1031.06	1025.45	–	1156	1138	–	1.224	1.126
x1 = 0.9555	1043.82	1038.2	1032.56	1162	1145	1128	1.283	1.177	1.088
x1 = 1	1049.3	1043.65	1038	1149	1132	1115	1.211	1.115	1.034
